{"source": "paper PMC8435859", "about": "(Frontiers in Cellular and Infection Microbiology, 2021)", "origin": "cited, not measured here", "key": {"[1]": {"system": "TRPA1", "design": "method as in López-Jiménez et al., European Journal of Nutrition, 2013", "conditions": "library annotation; ref López-Jiménez et al., European Journal of Nutrition, 2013; read-out: agonist of TRPA1, EC5 value; cited from earlier work"}, "[2]": {"system": "EV71", "conditions": "ref Choi HJ et al., Biomol Ther (Seoul). 2016 Sep 1;24(5):552-8; cited from earlier work"}, "[3]": {"system": "PGE2 production", "design": "method as in Kim HJ, et al. Arch Pharm Res. 2016 Feb;39(2):231-239.", "conditions": "ref Kim HJ, et al. Arch Pharm Res. 2016 Feb;39(2):231-239.; read-out: IC50, inhibitory effect on PGE2 production; cited from earlier work"}, "[4]": {"system": "H. pylori", "design": "method as in ref Sales SM et al., Biomedicine & Pharmacotherapy, 2018, 103:1577-1584", "conditions": "ref Sales SM et al., Biomedicine & Pharmacotherapy, 2018, 103:1577-1584; cited from earlier work"}, "[5]": {"system": "MDA-MB-231", "design": "method as in ref Sales SM et al., Biomedicine & Pharmacotherapy, 2018, 103:1577-1584", "conditions": "one value printed for MCF-7 & MDA-MB-231; ref Sales SM et al., Biomedicine & Pharmacotherapy, 2018, 103:1577-1584; read-out: IC50, decreased MDA-MB-231 survival; cited from earlier work"}, "[6]": {"system": "MCF-7", "design": "method as in ref Sales SM et al., Biomedicine & Pharmacotherapy, 2018, 103:1577-1584", "conditions": "one value printed for MCF-7 & MDA-MB-231; ref Sales SM et al., Biomedicine & Pharmacotherapy, 2018, 103:1577-1584; read-out: IC50, decreased MCF-7 survival; cited from earlier work"}, "[7]": {"system": "GABA uptake", "design": "method as in Johnston G A R et al., Nature", "conditions": "ref Johnston G A R et al., Nature; read-out: IC50, inhibition of GABA uptake; cited from earlier work"}, "[8]": {"biological_target": "β-secretase (BACE1)", "design": "method as in Murakami, A., et al. Carcinogenesis 21(10), 1843-1850 (2000)", "conditions": "ref Murakami, A., et al. Carcinogenesis 21(10), 1843-1850 (2000); cited from earlier work"}, "[9]": {"biological_target": "tyrosinase", "design": "method as in Boissy RE, et al. Exp Dermatol, 2005, 14(8), 601-608", "conditions": "reversible inhibition; ref Boissy RE, et al. Exp Dermatol, 2005, 14(8), 601-608; cited from earlier work"}, "[10]": {"system": "HeLa cells", "design": "method as in Wu ZT, et al. Acta Pharmacol Sin. 2014 Sep;35(9):1188-98", "conditions": "ref Wu ZT, et al. Acta Pharmacol Sin. 2014 Sep;35(9):1188-98, read-out: IC50, autophagy followed by apoptotic cell death; cited from earlier work"}, "[11]": {"system": "MDAMB231", "design": "method as in Wu ZT, et al. Acta Pharmacol Sin. 2014 Sep;35(9):1188-98", "conditions": "ref Wu ZT, et al. Acta Pharmacol Sin. 2014 Sep;35(9):1188-98, read-out: IC50, cellular response via inhibition of mTORC1 and induction of ER stress; cited from earlier work"}, "[12]": {"system": "BT474 cells", "design": "method as in Wu ZT, et al. Acta Pharmacol Sin. 2014 Sep;35(9):1188-98", "conditions": "ref Wu ZT, et al. Acta Pharmacol Sin. 2014 Sep;35(9):1188-98, read-out: IC50, cellular response via inhibition of mTORC1 and induction of ER stress; cited from earlier work"}, "[13]": {"system": "CYP3A4", "design": "method as in ref Cheng SenSung et al., Journal of Agricultural & Food Chemistry, 2012, 60(1):124-8", "conditions": "ref Cheng SenSung et al., Journal of Agricultural & Food Chemistry, 2012, 60(1):124-8; read-out: Ki, CYP3A4 inhibition; cited from earlier work"}, "[14]": {"system": "CYP2B6", "design": "method as in ref Cheng SenSung et al., Journal of Agricultural & Food Chemistry, 2012, 60(1):124-8", "conditions": "ref Cheng SenSung et al., Journal of Agricultural & Food Chemistry, 2012, 60(1):124-8; read-out: Ki, CYP2B6 inhibition; cited from earlier work"}, "[15]": {"biological_target": "6-phosphogluconate dehydrogenase", "design": "method as in Ma X, et al. Pest Manag Sci, 2010, 66(7), 718-724", "conditions": "ref Ma X, et al. Pest Manag Sci, 2010, 66(7), 718-724; cited from earlier work"}, "[16]": {"biological_target": "6-phosphogluconate dehydrogenase", "design": "method as in Ma X, et al. Pest Manag Sci, 2010, 66(7), 718-724", "conditions": "ref Ma X, et al. Pest Manag Sci, 2010, 66(7), 718-724; cited from earlier work", "remark": "listed apart in the source"}, "[17]": {"system": "hepatitis B virus (HBV)", "design": "method as in Abdelwahed A, et al. Chem Biol Interact. 2007", "conditions": "at a concentration of 4 microg/ml; library annotation; ref Abdelwahed A, et al. Chem Biol Interact. 2007; cited from earlier work"}, "[18]": {"system": "PGE2 release", "design": "method as in ref Huang H et al., Journal of Agricultural and Food Chemistry, 2011", "conditions": "library annotation; ref Huang H et al., Journal of Agricultural and Food Chemistry, 2011; cited from earlier work"}, "[19]": {"biological_target": "aldose reductase", "conditions": "recombinant human aldose reductase; library annotation; ref Huang H et al., Journal of Agricultural and Food Chemistry, 2011; read-out: inhibition of recombinant human aldose reductase, IC5 value; cited from earlier work"}, "[20]": {"system": "PTP1B", "design": "method as in Xu F, Yang L, Huang X, et al. Mol Divers.", "conditions": "ref Xu F, Yang L, Huang X, et al. Mol Divers.; read-out: IC50, PTP1B inhibition; cited from earlier work"}, "[21]": {"system": "TNF-α", "design": "method as in ref Singh B, et al. Natural Product Research, 2013, 27(23):2227-2230.", "conditions": "anti-inflammatory activity; ref Singh B, et al. Natural Product Research, 2013, 27(23):2227-2230.; read-out: IC50, inhibition of TNF-α; cited from earlier work"}, "[22]": {"system": "IL-1β", "design": "method as in ref Singh B, et al. Natural Product Research, 2013, 27(23):2227-2230.", "conditions": "anti-inflammatory activity; ref Singh B, et al. Natural Product Research, 2013, 27(23):2227-2230.; read-out: IC50, inhibition of IL-1β; cited from earlier work"}}, "note": "Counter-ions that a name gives are not always drawn."}
{"smiles": "CC(C)c1cc2c(c(O)c1O)[C@@]13CCCC(C)(C)[C@@H]1C[C@@H]2OC3=O", "note": "[Carnosol]", "values": [{"measurement": "EC50", "setting": "[1]", "value": 12.5, "unit": "µM"}]}
{"smiles": "O=c1cc(-c2ccccc2)oc2c(O)c(O)cc(O)c12", "note": "[Norwogonin]", "values": [{"measurement": "IC50, antiviral activity against Enterovirus 71", "setting": "[2]", "value": "Norwogonin, isolated from Scutellaria baicalensis Georgi, possesses antiviral activity against Enterovirus 71 (IC50: 31.83 μg/ml)."}]}
{"smiles": "CC(C)=CCc1cc2ccc(=O)oc2cc1O", "note": "[7-demethylsuberosin]", "values": [{"measurement": "IC50", "setting": "[3]", "value": 9.42, "unit": "µM"}]}
{"smiles": "CCCCCCCCOC(=O)c1cc(O)c(O)c(O)c1", "note": "[Octyl gallate]", "values": [{"measurement": "minimum inhibitory concentration (MIC) against H. pylori", "setting": "[4]", "value": 125, "unit": "µg/mL"}, {"measurement": "IC50", "setting": "[5]", "value": 40, "unit": "µM"}, {"measurement": "IC50", "setting": "[6]", "value": 40, "unit": "µM"}]}
{"smiles": "O=C(O)C1=CCCNC1", "note": "[Guvacine hydrochloride]", "values": [{"measurement": "IC50", "setting": "[7]", "value": 10, "unit": "µM"}]}
{"smiles": "CC(C)=CCC/C(C)=C/COc1ccc2ccc(=O)oc2c1", "note": "[Auraptene]", "values": [{"measurement": "IC50", "setting": "[8]", "value": 345, "unit": "µM"}]}
{"smiles": "Oc1ccc(OC2CCCCO2)cc1", "note": "(stereo not shown) [Deoxyarbutin]", "values": [{"measurement": "IC50", "setting": "[9]", "value": 0.05, "unit": "µM"}]}
{"smiles": "C[C@H]1CC[C@@]2(OC1)O[C@H]1C[C@H]3[C@@H]4CC[C@@H]5C[C@@H](O[C@@H]6O[C@H](CO)[C@H](O)[C@H](O)[C@H]6O[C@@H]6O[C@H](CO)[C@@H](O)[C@H](O)[C@H]6O)CC[C@]5(C)[C@H]4CC[C@]3(C)[C@H]1[C@@H]2C", "note": "[Timosaponin AIII]", "values": [{"measurement": "IC50", "setting": "[10]", "value": 10, "unit": "µM"}, {"measurement": "IC50", "setting": "[11]", "value": 6, "unit": "µM"}, {"measurement": "IC50", "setting": "[12]", "value": 2.5, "unit": "µM"}]}
{"smiles": "C[C@@H]1CC[C@H]2C(C)(C)[C@H]3C[C@@]12CC[C@@]3(C)O", "note": "[Cedrol]", "values": [{"measurement": "Ki", "setting": "[13]", "value": 3.4, "unit": "µM"}, {"measurement": "Ki", "setting": "[14]", "value": 0.9, "unit": "µM"}]}
{"smiles": "COc1cc(O)c2c(c1)C(=O)c1cc(C)cc(O)c1C2=O", "note": "[Rheochrysidin]", "values": [{"measurement": "Kd", "setting": "[15]", "value": 26, "unit": "µM"}, {"measurement": "IC50", "setting": "[16]", "value": 38.5, "unit": "µM"}]}
{"smiles": "O=C(OC[C@H]1OC(OC(=O)c2cc(O)c(O)c(O)c2)[C@H](OC(=O)c2cc(O)c(O)c(O)c2)[C@@H](OC(=O)c2cc(O)c(O)c(O)c2)[C@@H]1OC(=O)c1cc(O)c(O)c(O)c1)c1cc(O)c(O)c(O)c1", "note": "(stereo partly shown) [1,2,3,4,6-O-Pentagalloylglucose]", "values": [{"measurement": "reduction of the HBsAg level", "setting": "[17]", "value": 25, "unit": "%"}]}
{"smiles": "CC1OC(OC2C(=O)c3c(O)cc(O)cc3OC2c2ccc(O)cc2)C(O)C(O)C1O", "note": "(stereo not shown) [Engeletin]", "values": [{"measurement": "inhibition of PGE2 release, IC5", "setting": "[18]", "value": 19.6, "unit": "µg/mL"}, {"measurement": "IC50", "setting": "[19]", "value": 1.16, "unit": "µM"}]}
{"smiles": "C=C(C)[C@@H]1CC[C@]2(C)CC[C@]3(C)[C@H](CC[C@@H]4[C@@]5(C)CCC(=O)C(C)(C)[C@@H]5CC[C@]43C)[C@@H]12", "note": "[LUPENONE]", "values": [{"measurement": "IC50", "setting": "[20]", "value": 15.1, "unit": "µM"}]}
{"smiles": "COc1cc2oc(-c3ccccc3)cc(=O)c2c(O)c1OC", "note": "[MOSLOFLAVONE]", "values": [{"measurement": "IC50", "setting": "[21]", "value": 0.71, "unit": "µM"}, {"measurement": "IC50", "setting": "[22]", "value": 7.8, "unit": "µM"}]}
